Experiments:
Experiment in all cases: biochemical
Type in all cases: binding
[1] = biological target: T1, panel of 442 kinases (Homo sapiens, UniProt Q9NY57); details: kinase YANK2; for remaining activity at 1 µM: read-out: YANK2 (% of control at 1 µM)
T1 construct: purchased Ambit Biosciences (scanMAXX KINOMEscan)

[2] = biological target: T2, panel of 442 kinases (Homo sapiens, UniProt Q6ZN16); details: kinase MAP3K15; for remaining activity at 1 µM: read-out: % of control at 1 µM
T2 construct: purchased Ambit Biosciences (scanMAXX KINOMEscan)
T2 sequence (Q6ZN16 1-1313): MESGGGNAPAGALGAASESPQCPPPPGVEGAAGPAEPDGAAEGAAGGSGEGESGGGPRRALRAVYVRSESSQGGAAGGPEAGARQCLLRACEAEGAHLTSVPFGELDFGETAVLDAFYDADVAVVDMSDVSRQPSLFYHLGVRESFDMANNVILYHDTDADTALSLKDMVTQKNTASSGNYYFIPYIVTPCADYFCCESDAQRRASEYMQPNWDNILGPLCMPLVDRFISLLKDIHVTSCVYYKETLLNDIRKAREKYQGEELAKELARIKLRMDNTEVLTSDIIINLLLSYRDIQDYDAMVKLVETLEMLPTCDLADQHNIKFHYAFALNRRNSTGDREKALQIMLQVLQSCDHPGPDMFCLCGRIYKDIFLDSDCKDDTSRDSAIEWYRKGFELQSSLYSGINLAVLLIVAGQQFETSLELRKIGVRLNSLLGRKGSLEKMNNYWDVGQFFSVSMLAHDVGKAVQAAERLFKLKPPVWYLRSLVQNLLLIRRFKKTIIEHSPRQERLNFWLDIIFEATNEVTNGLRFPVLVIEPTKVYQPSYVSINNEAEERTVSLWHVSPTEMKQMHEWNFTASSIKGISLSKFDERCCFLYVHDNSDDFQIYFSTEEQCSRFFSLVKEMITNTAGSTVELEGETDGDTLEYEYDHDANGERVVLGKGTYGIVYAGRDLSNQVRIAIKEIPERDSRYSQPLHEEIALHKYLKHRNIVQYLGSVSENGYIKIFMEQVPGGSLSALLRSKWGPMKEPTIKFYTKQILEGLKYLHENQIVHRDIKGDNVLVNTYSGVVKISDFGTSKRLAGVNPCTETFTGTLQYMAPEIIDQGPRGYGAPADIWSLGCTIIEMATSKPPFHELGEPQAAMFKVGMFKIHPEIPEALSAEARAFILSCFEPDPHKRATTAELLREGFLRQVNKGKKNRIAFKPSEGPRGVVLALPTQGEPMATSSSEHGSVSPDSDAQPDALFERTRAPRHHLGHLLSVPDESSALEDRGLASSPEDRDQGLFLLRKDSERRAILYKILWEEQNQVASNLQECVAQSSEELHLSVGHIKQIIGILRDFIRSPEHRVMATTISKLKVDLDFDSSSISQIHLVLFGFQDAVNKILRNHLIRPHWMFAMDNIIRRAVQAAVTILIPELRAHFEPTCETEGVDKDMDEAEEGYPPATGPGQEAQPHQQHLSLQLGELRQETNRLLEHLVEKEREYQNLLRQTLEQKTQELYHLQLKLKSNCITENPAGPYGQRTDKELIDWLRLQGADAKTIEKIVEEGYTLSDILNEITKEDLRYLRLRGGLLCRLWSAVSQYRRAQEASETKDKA

[3] = biological target: T3, panel of 442 kinases (Homo sapiens, UniProt Q9UQ88); details: CDC2L2; for remaining activity at 1 µM: read-out: % of control at 1 µM
T3 construct: purchased Ambit Biosciences (scanMAXX KINOMEscan)
T3 sequence (Q9UQ88 1-783): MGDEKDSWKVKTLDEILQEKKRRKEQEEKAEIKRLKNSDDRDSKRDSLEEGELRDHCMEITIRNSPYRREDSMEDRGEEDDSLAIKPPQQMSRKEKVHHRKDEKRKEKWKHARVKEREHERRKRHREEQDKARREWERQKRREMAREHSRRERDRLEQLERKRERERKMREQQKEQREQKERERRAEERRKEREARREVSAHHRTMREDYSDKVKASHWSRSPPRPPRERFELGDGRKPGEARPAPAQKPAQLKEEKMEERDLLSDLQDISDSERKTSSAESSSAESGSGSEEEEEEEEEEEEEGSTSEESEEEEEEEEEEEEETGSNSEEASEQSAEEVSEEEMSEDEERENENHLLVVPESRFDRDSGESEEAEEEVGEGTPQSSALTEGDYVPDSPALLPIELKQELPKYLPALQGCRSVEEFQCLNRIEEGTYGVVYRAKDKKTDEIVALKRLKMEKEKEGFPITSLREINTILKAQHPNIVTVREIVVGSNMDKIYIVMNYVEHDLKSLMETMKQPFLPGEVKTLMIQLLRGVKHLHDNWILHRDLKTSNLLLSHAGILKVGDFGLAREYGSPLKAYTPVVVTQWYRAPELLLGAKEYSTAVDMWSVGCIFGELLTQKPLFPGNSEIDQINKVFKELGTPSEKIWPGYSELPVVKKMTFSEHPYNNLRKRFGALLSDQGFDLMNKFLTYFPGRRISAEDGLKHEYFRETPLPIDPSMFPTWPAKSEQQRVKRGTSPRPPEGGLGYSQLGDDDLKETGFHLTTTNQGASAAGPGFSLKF

[4] = biological target: T4, panel of 442 kinases (Homo sapiens, UniProt P22694); details: kinase PKAC-beta; for remaining activity at 1 µM: read-out: PKAC-beta (% of control at 1 µM)
T4 construct: purchased Ambit Biosciences (scanMAXX KINOMEscan)

[5] = biological target: T5, panel of 442 kinases (Homo sapiens, UniProt Q07912); details: kinase TNK2; for remaining activity at 1 µM: read-out: TNK2 (% of control at 1 µM)
T5 construct: purchased Ambit Biosciences (scanMAXX KINOMEscan)

[6] = biological target: T6, panel of 442 kinases (Homo sapiens, UniProt Q8NEV4); details: kinase MYO3A; for remaining activity at 1 µM: read-out: % of control at 1 µM
T6 construct: purchased Ambit Biosciences (scanMAXX KINOMEscan)

[7] = biological target: T7, panel of 442 kinases (Homo sapiens, UniProt P43405); details: kinase SYK; for remaining activity at 1 µM: read-out: SYK (% of control at 1 µM)
T7 construct: purchased Ambit Biosciences (scanMAXX KINOMEscan)

[8] = biological target: T8, panel of 442 kinases (Homo sapiens, UniProt Q16816); details: kinase PHKG1; for remaining activity at 1 µM: read-out: % of control at 1 µM
T8 construct: purchased Ambit Biosciences (scanMAXX KINOMEscan)

[9] = biological target: T9, panel of 442 kinases (Homo sapiens, UniProt Q8WU08); details: kinase YANK1; for remaining activity at 1 µM: read-out: YANK1 (% of control at 1 µM)
T9 construct: purchased Ambit Biosciences (scanMAXX KINOMEscan)

[10] = 10 µM, read-out: % of control at 10 µM

T5 sequence (Q07912 whole entry): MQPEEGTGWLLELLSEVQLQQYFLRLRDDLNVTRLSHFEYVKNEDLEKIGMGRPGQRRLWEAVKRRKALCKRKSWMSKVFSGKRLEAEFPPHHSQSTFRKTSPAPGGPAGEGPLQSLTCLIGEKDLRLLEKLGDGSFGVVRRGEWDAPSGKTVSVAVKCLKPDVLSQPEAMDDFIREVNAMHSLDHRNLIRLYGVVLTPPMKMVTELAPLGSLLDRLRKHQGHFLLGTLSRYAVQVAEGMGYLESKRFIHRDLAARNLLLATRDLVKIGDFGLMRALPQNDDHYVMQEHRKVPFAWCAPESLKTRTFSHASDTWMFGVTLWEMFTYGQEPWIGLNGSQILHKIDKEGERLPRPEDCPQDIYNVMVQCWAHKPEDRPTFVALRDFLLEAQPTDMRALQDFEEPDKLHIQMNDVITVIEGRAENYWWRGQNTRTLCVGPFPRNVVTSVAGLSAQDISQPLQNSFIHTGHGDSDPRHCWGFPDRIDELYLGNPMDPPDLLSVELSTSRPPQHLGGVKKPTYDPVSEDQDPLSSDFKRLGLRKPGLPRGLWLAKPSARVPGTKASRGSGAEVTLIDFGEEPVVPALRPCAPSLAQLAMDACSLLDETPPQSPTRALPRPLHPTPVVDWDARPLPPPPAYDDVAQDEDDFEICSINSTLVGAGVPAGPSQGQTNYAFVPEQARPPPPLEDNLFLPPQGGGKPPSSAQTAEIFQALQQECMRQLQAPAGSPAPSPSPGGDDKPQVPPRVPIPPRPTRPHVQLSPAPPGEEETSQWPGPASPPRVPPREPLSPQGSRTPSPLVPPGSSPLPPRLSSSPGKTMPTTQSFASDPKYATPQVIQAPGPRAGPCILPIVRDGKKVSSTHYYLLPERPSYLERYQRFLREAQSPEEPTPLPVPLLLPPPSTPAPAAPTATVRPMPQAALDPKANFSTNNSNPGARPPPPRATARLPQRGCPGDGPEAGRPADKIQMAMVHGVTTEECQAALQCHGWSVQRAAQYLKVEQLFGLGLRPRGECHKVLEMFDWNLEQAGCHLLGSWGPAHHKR
T8 sequence (Q16816 whole entry): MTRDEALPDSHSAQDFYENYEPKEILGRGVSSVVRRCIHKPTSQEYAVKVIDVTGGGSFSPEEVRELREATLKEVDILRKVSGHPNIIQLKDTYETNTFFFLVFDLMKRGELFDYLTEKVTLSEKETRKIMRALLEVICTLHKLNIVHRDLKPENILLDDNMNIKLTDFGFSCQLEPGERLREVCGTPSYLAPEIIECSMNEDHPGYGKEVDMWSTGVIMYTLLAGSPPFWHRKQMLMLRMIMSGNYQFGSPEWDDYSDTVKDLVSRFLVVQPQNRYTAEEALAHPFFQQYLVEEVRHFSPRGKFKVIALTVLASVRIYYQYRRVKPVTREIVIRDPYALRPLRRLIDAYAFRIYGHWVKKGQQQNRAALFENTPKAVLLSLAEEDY
T6 sequence (Q8NEV4 whole entry): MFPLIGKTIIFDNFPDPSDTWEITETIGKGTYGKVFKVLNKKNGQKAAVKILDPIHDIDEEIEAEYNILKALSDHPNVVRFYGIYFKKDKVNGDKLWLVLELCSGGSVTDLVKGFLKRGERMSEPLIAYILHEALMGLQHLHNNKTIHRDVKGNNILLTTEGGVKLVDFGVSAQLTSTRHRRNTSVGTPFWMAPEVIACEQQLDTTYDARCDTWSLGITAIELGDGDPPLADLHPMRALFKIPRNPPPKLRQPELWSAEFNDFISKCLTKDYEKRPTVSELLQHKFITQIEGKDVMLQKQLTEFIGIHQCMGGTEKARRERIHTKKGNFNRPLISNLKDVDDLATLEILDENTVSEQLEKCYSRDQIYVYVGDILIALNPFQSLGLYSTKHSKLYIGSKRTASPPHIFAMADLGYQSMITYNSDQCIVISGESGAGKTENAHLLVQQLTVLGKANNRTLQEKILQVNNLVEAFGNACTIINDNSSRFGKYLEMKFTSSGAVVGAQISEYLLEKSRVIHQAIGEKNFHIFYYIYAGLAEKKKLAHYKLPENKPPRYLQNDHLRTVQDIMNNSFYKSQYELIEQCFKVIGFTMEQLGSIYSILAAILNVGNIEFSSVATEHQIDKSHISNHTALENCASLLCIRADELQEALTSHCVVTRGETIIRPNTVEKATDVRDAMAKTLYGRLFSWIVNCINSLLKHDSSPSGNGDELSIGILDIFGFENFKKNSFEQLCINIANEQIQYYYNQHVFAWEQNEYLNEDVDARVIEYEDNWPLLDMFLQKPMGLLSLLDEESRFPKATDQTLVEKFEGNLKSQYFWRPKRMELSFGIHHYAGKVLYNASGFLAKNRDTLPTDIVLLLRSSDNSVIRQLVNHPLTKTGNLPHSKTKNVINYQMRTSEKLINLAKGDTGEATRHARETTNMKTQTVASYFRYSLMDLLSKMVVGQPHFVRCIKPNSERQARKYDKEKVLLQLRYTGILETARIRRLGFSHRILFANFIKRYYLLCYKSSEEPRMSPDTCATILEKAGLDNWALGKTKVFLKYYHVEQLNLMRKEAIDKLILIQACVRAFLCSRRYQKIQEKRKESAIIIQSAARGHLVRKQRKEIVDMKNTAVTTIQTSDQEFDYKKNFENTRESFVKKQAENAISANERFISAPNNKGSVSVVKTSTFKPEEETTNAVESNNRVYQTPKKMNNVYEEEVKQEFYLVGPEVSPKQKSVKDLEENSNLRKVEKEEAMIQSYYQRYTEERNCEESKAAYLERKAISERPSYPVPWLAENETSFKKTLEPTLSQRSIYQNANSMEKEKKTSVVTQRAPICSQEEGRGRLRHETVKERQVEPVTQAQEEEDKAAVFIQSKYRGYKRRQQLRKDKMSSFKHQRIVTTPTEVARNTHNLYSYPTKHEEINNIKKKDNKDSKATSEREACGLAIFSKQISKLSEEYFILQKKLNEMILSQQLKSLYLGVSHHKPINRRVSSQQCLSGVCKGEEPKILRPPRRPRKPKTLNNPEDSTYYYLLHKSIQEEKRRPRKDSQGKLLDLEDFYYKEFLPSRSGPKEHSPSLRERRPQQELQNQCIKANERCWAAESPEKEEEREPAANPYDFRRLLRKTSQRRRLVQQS
T9 sequence (Q8WU08 whole entry): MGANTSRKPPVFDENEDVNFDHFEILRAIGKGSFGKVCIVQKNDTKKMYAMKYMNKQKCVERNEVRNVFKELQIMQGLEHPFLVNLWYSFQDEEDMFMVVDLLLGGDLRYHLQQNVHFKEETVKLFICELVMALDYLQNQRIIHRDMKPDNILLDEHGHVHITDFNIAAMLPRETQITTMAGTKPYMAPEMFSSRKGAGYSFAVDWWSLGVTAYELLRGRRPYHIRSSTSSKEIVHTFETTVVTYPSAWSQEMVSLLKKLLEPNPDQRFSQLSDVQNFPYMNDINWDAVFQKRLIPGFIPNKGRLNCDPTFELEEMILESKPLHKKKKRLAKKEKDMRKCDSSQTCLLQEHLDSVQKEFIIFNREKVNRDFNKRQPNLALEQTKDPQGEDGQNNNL
T1 sequence (Q9NY57 whole entry): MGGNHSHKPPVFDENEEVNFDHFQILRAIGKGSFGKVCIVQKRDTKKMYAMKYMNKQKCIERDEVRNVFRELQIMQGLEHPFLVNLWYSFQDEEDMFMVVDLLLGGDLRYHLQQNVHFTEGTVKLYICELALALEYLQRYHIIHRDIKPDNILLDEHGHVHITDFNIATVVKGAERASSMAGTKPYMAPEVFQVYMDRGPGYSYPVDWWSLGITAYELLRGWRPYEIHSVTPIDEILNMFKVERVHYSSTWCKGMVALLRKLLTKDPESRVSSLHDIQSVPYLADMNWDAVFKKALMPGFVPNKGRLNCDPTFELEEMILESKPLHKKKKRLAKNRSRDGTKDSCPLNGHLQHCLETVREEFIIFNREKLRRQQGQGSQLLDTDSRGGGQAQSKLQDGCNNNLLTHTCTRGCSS

| SMILES | remaining activity at 1 µM [1] [%] | remaining activity at 10 µM ([1]; 10 µM, read-out: YANK2 (% of control at 10 µM)) [%] | remaining activity at 1 µM [2] [%] | remaining activity at 10 µM [2, 10] [%] | remaining activity at 1 µM [3] [%] | remaining activity at 10 µM [3, 10] [%] | remaining activity at 1 µM [4] [%] | remaining activity at 10 µM ([4]; 10 µM, read-out: PKAC-beta (% of control at 10 µM)) [%] | remaining activity at 1 µM [5] [%] | remaining activity at 10 µM ([5]; 10 µM, read-out: TNK2 (% of control at 10 µM)) [%] | remaining activity at 1 µM [6] [%] | remaining activity at 10 µM [6, 10] [%] | remaining activity at 1 µM [7] [%] | remaining activity at 10 µM ([7]; 10 µM, read-out: SYK (% of control at 10 µM)) [%] | remaining activity at 1 µM [8] [%] | remaining activity at 10 µM [8, 10] [%] | remaining activity at 1 µM [9] [%] | remaining activity at 10 µM ([9]; 10 µM, read-out: YANK1 (% of control at 10 µM)) [%] |
| --- | --- | --- | --- | --- | --- | --- | --- | --- | --- | --- | --- | --- | --- | --- | --- | --- | --- | --- |
| Nc1cc(C(F)(F)F)c(-c2cc(N3CCOCC3)nc(N3CCOCC3)n2)cn1 [Buparlisib] | 100 | 100 | 97 | 100 | 100 | 99 | 79 | 100 | 100 | 100 | 90 | 100 | 98 | 100 | 99 | 100 | 100 | 100 |
| Cn1c(=O)n(-c2ccc(C(C)(C)C#N)cc2)c2c3cc(-c4cnc5ccccc5c4)ccc3ncc21 [Dactolisib, 2-methyl-2-[4-(3-methyl-2-oxo-8-quinolin-3-yl-2,3-dihydroimidazo[4,5-c]quinolin-1-yl)-phenyl] propionitrile] | 96 | – | 100 | – | 89 | – | 90 | – | 98 | – | 88 | – | 100 | – | 100 | – | 100 | – |
| COc1ncc(-c2ccc3nccc(-c4ccnnc4)c3c2)cc1NS(=O)(=O)c1ccc(F)cc1F [Omipalisib] | 100 | – | 90 | – | 100 | – | 100 | – | 100 | – | 100 | – | 100 | – | 86 | – | 100 | – |
| FC(F)c1nc2ccccc2n1-c1nc(N2CCOCC2)nc(N2CCOCC2)n1 [ZSTK474, 2-(difluoromethyl)-1-[4,6-di(4-morpholinyl)-1,3,5-triazin-2-yl]-1H-benzimidazole] | 100 | – | 100 | – | 100 | – | 100 | – | 100 | – | 99 | – | 100 | – | 100 | – | 100 | – |

— PMC5564600 (Oncotarget, 2017)
